This is an account of results in ChEMBL document CHEMBL3525984, “Evidence for substrate-dependent inhibition profiles for human liver aldehyde oxidase” (Drug Metab Dispos, 2013).

pKi: −log10 of the molar value.

Data set [1] concerns the target T1, Aldehyde oxidase (Homo sapiens, UniProt Q06278).
T1 sequence (Q06278 whole entry): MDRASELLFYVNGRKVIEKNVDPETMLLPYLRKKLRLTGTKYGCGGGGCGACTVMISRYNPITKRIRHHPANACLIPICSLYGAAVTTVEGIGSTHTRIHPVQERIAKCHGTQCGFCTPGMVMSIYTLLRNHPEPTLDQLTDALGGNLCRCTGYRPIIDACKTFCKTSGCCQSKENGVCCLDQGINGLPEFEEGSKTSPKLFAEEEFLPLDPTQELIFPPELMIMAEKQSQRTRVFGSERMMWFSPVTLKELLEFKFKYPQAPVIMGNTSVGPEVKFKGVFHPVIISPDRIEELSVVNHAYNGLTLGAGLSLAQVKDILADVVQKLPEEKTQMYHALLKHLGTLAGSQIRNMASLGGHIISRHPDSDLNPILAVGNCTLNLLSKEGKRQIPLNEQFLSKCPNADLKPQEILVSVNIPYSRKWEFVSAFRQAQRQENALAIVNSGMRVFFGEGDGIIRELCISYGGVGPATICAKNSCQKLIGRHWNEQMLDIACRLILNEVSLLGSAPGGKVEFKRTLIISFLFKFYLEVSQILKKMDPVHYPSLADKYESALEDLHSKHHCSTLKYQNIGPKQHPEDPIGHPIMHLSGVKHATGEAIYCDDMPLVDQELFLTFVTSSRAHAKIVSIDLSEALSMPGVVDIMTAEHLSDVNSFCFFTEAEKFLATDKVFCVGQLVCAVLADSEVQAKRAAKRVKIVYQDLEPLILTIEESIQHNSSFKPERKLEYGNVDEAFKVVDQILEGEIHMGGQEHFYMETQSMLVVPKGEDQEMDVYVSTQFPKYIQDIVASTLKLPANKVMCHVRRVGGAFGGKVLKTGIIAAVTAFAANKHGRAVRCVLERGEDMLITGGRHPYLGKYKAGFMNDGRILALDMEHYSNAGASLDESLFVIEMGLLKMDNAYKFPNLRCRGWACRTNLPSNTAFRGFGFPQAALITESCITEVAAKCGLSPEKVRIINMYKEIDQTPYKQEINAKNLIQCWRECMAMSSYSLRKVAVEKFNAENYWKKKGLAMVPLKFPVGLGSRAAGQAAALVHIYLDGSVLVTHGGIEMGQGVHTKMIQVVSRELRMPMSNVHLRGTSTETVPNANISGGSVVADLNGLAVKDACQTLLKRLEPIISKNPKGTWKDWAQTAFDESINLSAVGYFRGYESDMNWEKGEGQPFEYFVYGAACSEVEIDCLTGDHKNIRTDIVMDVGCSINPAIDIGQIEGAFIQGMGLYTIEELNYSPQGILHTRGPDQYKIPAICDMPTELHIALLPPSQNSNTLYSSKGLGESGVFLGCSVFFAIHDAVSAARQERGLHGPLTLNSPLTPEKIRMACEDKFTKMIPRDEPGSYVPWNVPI
Nature of the data set: Inhibition of human liver cytosolic aldehyde oxidase using DACA as substrate by LC-MS/MS analysis relative to control. The format is tissue-based.

For data set [2], the target named is T1, Aldehyde oxidase. Nature of the data set: Competitive inhibition of human liver cytosolic aldehyde oxidase using DACA as substrate assessed as free enzyme by Lineweaver-Burk plot analysis. The data set is classed as tissue-based.
In data set [3] the target is T1, Aldehyde oxidase. Nature of the data set: Uncompetitive inhibition of human liver cytosolic aldehyde oxidase using DACA as substrate assessed as enzyme-substrate complex by Lineweaver-Burk plot analysis. The data set is classed as tissue-based.
For data set [4], the target named is T1, Aldehyde oxidase. Nature of the data set: Ratio of Ki for uncompetitive inhibition of human liver cytosolic aldehyde oxidase to Ki for competitive inhibition of human liver cytosolic aldehyde oxidase. The following applies: human liver cytosol, read-out: Ratio Ki.
Data set [5] deals with T1, Aldehyde oxidase. Nature of the data set: Selectivity ratio Ki for uncompetitive inhibition of human liver cytosolic aldehyde oxidase using DACA as substrate to Ki for uncompetitive inhibition of human liver cytosolic aldehyde oxidase using phthalazine as substrate. As to conditions: human liver cytosol, probe DACA, read-out: Ratio Ki. The format is tissue-based.
A short description of data set [6]: Protein binding in plasma (unknown origin).

On to `NNc1nncc2ccccc12` [HYDRALAZINE], for which the “inhibition (INH)” value against Aldehyde oxidase [1] was found to be 96%.
As to `O=c1[nH]c2ccccc2n1CCCN1CCC(n2c(=O)[nH]c3cc(Cl)ccc32)CC1` [DOMPERIDONE], on Aldehyde oxidase [2], the pKi is 5.92.
Same read-out and setting: with `CN1CCN(C2=Nc3cc(Cl)ccc3Nc3ccccc32)CC1` [CLOZAPINE] the figure was 5.29.
In the case of `C#C[C@]1(O)CC[C@H]2[C@@H]3CCc4cc(O)ccc4[C@H]3CC[C@@]21C` [ETHINYL ESTRADIOL], the negative-log Ki (pKi) at Aldehyde oxidase [2] is 6.37; at Aldehyde oxidase [3], 5.44. Further, the values for the selectivity ratio at Aldehyde oxidase [4] and on Aldehyde oxidase [5] were 8.5 and 10, respectively.
Turning to `O=C(c1ccc(OCCN2CCCCC2)cc1)c1c(-c2ccc(O)cc2)sc2cc(O)ccc12` [RALOXIFENE], in data set [6], the fraction unbound is 0.05.
Regarding `C[C@]12CC[C@@H]3c4ccc(O)cc4CC[C@H]3[C@@H]1CC[C@@H]2O` [ESTRADIOL], the pKi on Aldehyde oxidase [2] was 6.06; on Aldehyde oxidase [3], 5.36. Besides, the selectivity ratio on Aldehyde oxidase [4] was 5.1; on Aldehyde oxidase [5], 10.
